Here are results for eleven compounds from paper PMC11375786, “Induction of Paraptotic Cell Death in Cancer Cells by Triptycene–Peptide Hybrids and the Revised Mechanism of Paraptosis II” (Biochemistry, 2024).

Like-named read-outs stand apart in the source and are kept apart here. Numbered stars: 1 amine (or outer) side, 2 acyl side, 3 side chain; on linkers, the order of the positions; unused ones are H or OH. Bridge positions count the residues as written; N and C are the ends. Square brackets hold non-standard residues; d marks the D form. Peptide text beside a SMILES is read from it. I, II: the chains in the order shown. * marks the point of attachment. X1 = O=C(COc1cccc2c1C1c3c(OCC(=O)NCCCCCCCCN[*:2])cccc3C2c2cccc(OCC(=O)NCCCCCCCCN[*:3])c21)NCCCCCCCCN[*:1]; Cha = N[C@@H](CC1CCCCC1)C(=O)O; Cbz = O=C(OCc1ccccc1)*; CH2F = FC*

As usually defined, the EC50 is the midpoint of the concentration-response curve.

Assay [1] concerns Jurkat cells. The assay can be described thus: MTT assay of Jurkat cells treated with 4 or celastrol in the presence of inhibitors. The following applies: DIDS 75 or 100 μM, RuRed 75 μM; for Inhibition of 4-induced cell death in Jurkat cells: 4 2.5 μM 1 h, Z-VAD-fmk 15 μM, necrostatin-1 30 μM, 3-MA 10 μM, CCCP 40 μM, 2-APB 50 or 100 μM; for Inhibition of celastrol-induced cell death in Jurkat cells: celastrol 5 μM 24 h, 2-APB 50 μM. Format: cell-based. Here is the method: (a) Jurkat cells: Jurkat cells (2.0 × 10^5 cells/mL) in RPMI 1640 medium with 10% FBS were pretreated with the inhibitors (Z-VAD-fmk (final concentration = 15 μM), necrostatin-1 (final concentration = 30 μM), 3-MA (final concentration = 10 μM), and DIDS (75 or 100 μM)) for 3 h or pretreated with other inhibitors (CCCP (40 μM), FCCP (40 μM), 2-APB (50 or 100 μM) and RuRed (75 μM)) for 1 h under 5% CO2 at 37 °C. After incubation, 4 (final concentration = 2.5 μM) was added to the cell suspension, which was then incubated for 1 h at 37 °C. To test the effect of celastrol, the cells were pretreated with the aforementioned inhibitors and then incubated with celastrol (5 μM) for 24 h. MTT reagent (5 mg/mL) in PBS (10 μL) was added to the cells. After incubation at 37 °C for 4 h, a formazan lysis solution (10% sodium dodecyl sulfate (SDS) in 0.01 N HCl) (100 μL) was added, and the resultant solution was incubated overnight under the same conditions, followed by measurement of the absorbance at 570 nm using a microplate reader (ARVO, PerkinElmer).

Assay [2] concerns HeLa-S3 cells. The assay can be described thus: MTT assay of HeLa-S3 cells treated with 4 or celastrol in the presence of inhibitors. Format: cell-based, human. The following applies: 4 5 μM 1 h; Z-VAD-fmk 100 μM, necrostatin-1 100 μM, 3-MA 5 mM, CCCP 160 μM, DIDS 75 or 100 μM. On the procedure: (b) HeLa-S3 cells: HeLa-S3 cells (2.0 × 10^5 cells/mL) in MEM medium with 10% FBS were pretreated with the inhibitors (3-MA (5 mM), and DIDS (75 or 100 μM)) for 3 h or pretreated with other inhibitors (Z-VAD-fmk (100 μM), necrostatin-1 (100 μM), CCCP (160 μM), and FCCP (80 μM)) for 1 h under 5% CO2 at 37 °C. After the incubation, 4 (final concentration = 5 μM) was added to the cell suspension, which was then incubated for 1 h at 37 °C. Subsequent procedures were the same as those used for the Jurkat cells.
In general terms: Formazan colour is commonly taken as a measure of viable cells.

Assay [3] relates to A549 cells. Briefly: MTT assay of A549 cells treated with 4 or celastrol in the presence of inhibitors. Format: cell-based, human. To be noted: 4 10 μM 1 h; Z-VAD-fmk 100 μM, necrostatin-1 100 μM, 3-MA 1 mM, CCCP 250 μM, DIDS 250 μM. Here is the method: (c) A549 cells: A549 cells (2.0 × 10^5 cells/mL) in DMEM medium with 10% FBS were pretreated with the inhibitors (3-MA (1 mM), and DIDS (250 μM)) for 3 h or pretreated with other inhibitors (Z-VAD-fmk (100 μM), necrostatin-1 (100 μM), CCCP (250 μM), and FCCP (10 μM)) for 1 h under 5% CO2 at 37 °C. After incubation, 4 (final concentration = 10 μM) was added to the cell suspension, which was then incubated for 1 h at 37 °C. Subsequent procedures were the same as those used for the Jurkat cells.

Assay [4] deals with HeLa-S3 cells. The assay can be described thus: cells. On the procedure:
(§1) HeLa S3 cells (human cervical carcinoma) were cultured in Minimum essential medium (MEM) containing 10% FBS, penicillin, and streptomycin. A549 cells (human lung carcinoma) and IMR90 cells (human fetal lung fibroblast) were cultured in Dulbecco’s modified Eagle’s medium (DMEM) with 10% FBS, penicillin, and streptomycin. All cells were cultured at 37 °C under a humidified atmosphere containing 5% CO2.
(§2) Jurkat, HeLa-S3, A549 cells (2.0 × 10^5 cells/mL) and IMR90 cells (1.0 × 10^5 cells/mL) were incubated in the presence of 3–7 for 1 h, and etoposide, cisplatin and celastrol for 24 h (50 μL) in cell culture medium under CO2 at 37 °C in 96-well plates (BD Falcon). MTT reagent (5 mg/mL) in PBS (10 μL) was then added to the cells. After incubation at 37 °C for 4 h, a formazan lysis solution (10% sodium dodecyl sulfate (SDS) in 0.01 N HCl) (100 μL) was added and the resultant solution was incubated overnight under the same conditions, which was followed by measurement of the absorbance at 570 nm using a microplate reader (ARVO, PerkinElmer).

For assay [5], the system named is IMR90 cells. Briefly: cells. On the procedure: as §1, §2
Assay [6] concerns Jurkat cells. Briefly: cells. Here is the method:
as §1, §2

In assay [7] the test system is A549 cells. Briefly: cells. Here is the method: as §1, §2
Assay [8] relates to labile Fe^2+ in mitochondria of Jurkat cells. Briefly: Mito-FerroGreen fluorescence microscopy in Jurkat cells. Format: cell-based. The following applies: 4 2.5 μM 1 h; celastrol 5 μM, etoposide 5 μM, cisplatin 100 μM 24 h. Here is the method:
(§3) Jurkat cells (2.0 × 10^5 cells) were treated with 4 (2.5 μM), etoposide (5 μM), cisplatin (100 μM) and celastrol (5 μM) and stained with Mito-FerroGreen (a probe for labile Fe^2+ in mitochondria) (5 μM) and zinquin (a probe for intracellular Zn^2+) (25 μM). The cell images were observed via fluorescence microscopy.

Assay [9] relates to intracellular Zn^2+ in Jurkat cells. The assay can be described thus: Zinquin fluorescence microscopy in Jurkat cells. Format: cell-based. To be noted: 4 2.5 μM 1 h; celastrol 5 μM, etoposide 5 μM, cisplatin 100 μM 24 h. On the procedure:
as §3

`COC(=O)CC(NC(=O)C(C)NC(=O)C(NC(=O)OCc1ccccc1)C(C)C)C(=O)CF` (stereo not drawn) [Z-VAD-fmk, benzyloxycarbonyl-VAD(OMe)-fluoromethylketone] (Cbz-Val-Ala-Asp(OMe)-CH2F; configuration not given here): the “Inhibition of 4-induced cell death in Jurkat cells” value in assay [1] is listed as “negligibly inhibited”. Moreover, the “Inhibition of 4-induced cell death in HeLa-S3 cells” value (“Inhibition … in HeLa-S3 cells” for short) in assay [2] is “negligibly inhibited”. In [3], the “Inhibition of 4-induced cell death in A549 cells” value (shortened to “Inhibition … in A549 cells”) was “negligibly inhibited”.

Take `NCCCC[C@H](NC(=O)[C@H](CC1CCCCC1)NC(=O)[C@H](CCCCN)NC(=O)[C@H](CC1CCCCC1)NC(=O)[C@@H](N)CCCCN)C(=O)NCC(=O)NCCCCCCCCNC(=O)COc1cccc2c1C1c3c(OCC(=O)NCCCCCCCCNC(=O)CNC(=O)[C@H](CCCCN)NC(=O)[C@H](CC4CCCCC4)NC(=O)[C@H](CCCCN)NC(=O)[C@H](CC4CCCCC4)NC(=O)[C@@H](N)CCCCN)cccc3C2c2cccc(OCC(=O)NCCCCCCCCNC(=O)CNC(=O)[C@H](CCCCN)NC(=O)[C@H](CC3CCCCC3)NC(=O)[C@H](CCCCN)NC(=O)[C@H](CC3CCCCC3)NC(=O)[C@@H](N)CCCCN)c21` [compound 6] (I: H-K[Cha]K[Cha]KG / II: H-K[Cha]K[Cha]KG / III: H-K[Cha]K[Cha]KG; linker I:C-II:C-III:C via X1): the results for the EC50 in assay [4] (1 h), in assay [5] (1 h) and in [6] (1 h) were 3.3 ± 0.2 µM, above 25 µM and 1.2 ± 0.1 µM, respectively.

In the case of `O=S(=O)(O)c1cc(N=C=S)ccc1C=Cc1ccc(N=C=S)cc1S(=O)(=O)O` [DIDS, 4,4′-diisothiocyano-2,2′-stilbenedisulfonic acid], in [1], the “Inhibition of 4-induced cell death in Jurkat cells” value is recorded as “considerably inhibits” and the “Inhibition of celastrol-induced cell death in Jurkat cells” value was “did not significantly stop cell death”. For the same compound, in [2], the “Inhibition … in HeLa-S3 cells” value was “considerably inhibits”. Besides, the “Inhibition … in A549 cells” value in assay [3] is “considerably inhibits”.

For the compound `NCCOB(c1ccccc1)c1ccccc1` [2-APB], in [1], the “Inhibition of 4-induced cell death in Jurkat cells” value is “rather weak” and the “Inhibition of celastrol-induced cell death in Jurkat cells” value is on record as “did not significantly stop cell death”.

For the compound `NCCCC[C@H](NC(=O)[C@H](CCCCN)NC(=O)[C@@H](N)CCCCN)C(=O)N[C@@H](CC1CCCCC1)C(=O)NCC(=O)O` [KKKChaG, H2N-KKKChaG] (H-KKK[Cha]G-OH; C-terminus assumed), the EC50 in [7] (1 h), in [4] (1 h), in assay [5] (1 h) and in assay [6] (1 h) was above 25 µM in each case.

Regarding `NCCCC[C@H](NC(=O)[C@H](CCCCN)NC(=O)[C@@H](N)CCCCN)C(=O)NCC(=O)NCC(=O)NCCCCCCCCNC(=O)COc1cccc2c1C1c3c(OCC(=O)NCCCCCCCCNC(=O)CNC(=O)CNC(=O)[C@H](CCCCN)NC(=O)[C@H](CCCCN)NC(=O)[C@@H](N)CCCCN)cccc3C2c2cccc(OCC(=O)NCCCCCCCCNC(=O)CNC(=O)CNC(=O)[C@H](CCCCN)NC(=O)[C@H](CCCCN)NC(=O)[C@@H](N)CCCCN)c21` [compound 3], the EC50 was 8.6 ± 1.8 µM in [7] (1 h), 5.3 ± 0.5 µM in assay [4] (1 h), above 25 µM in [5] (1 h) and 2.2 ± 0.5 µM in assay [6] (1 h).

In the case of `COc1cc([C@@H]2c3cc4c(cc3[C@@H](O[C@@H]3O[C@@H]5CO[C@@H](C)O[C@H]5[C@H](O)[C@H]3O)[C@H]3COC(=O)[C@H]23)OCO4)cc(OC)c1O` [etoposide], the EC50 in assay [7] (Homo sapiens, A549, read-out: EC50 against A549 cells) was above 100 µM; in assay [4] (Homo sapiens, HeLa S3, 24 h, read-out: EC50 against HeLa-S3 cells), above 100 µM; in [5] (Homo sapiens, IMR-90, 24 h, read-out: EC50 against IMR90 cells), above 25 µM; in assay [6] (Homo sapiens, Jurkat, 24 h, read-out: EC50 against Jurkat cells) it was 3.1 ± 0.1 µM. The “Emission from Mito-FerroGreen (free Fe2+ in mitochondria) in Jurkat cells” value in [8] is “increases in both free-Fe^2+ and free-Zn^2+”. Besides, the “Emission from zinquin (intracellular free Zn2+) in Jurkat cells” value in assay [9] is “increases in both free-Fe^2+ and free-Zn^2+”.

For `N.N.N.N.N.N.N.N.N.N.N.N.N.N.[Cl-].[Cl-].[Cl-].[Cl-].[Cl-].[Cl-].[O-2].[O-2].[Ru+3].[Ru+3].[Ru+4]` [RuRed, Ruthenium Red], in assay [1], the “Inhibition of 4-induced cell death in Jurkat cells” value is on record as “rather weak” and the “Inhibition of celastrol-induced cell death in Jurkat cells” value was “did not significantly stop cell death”.

Regarding `Cn1cnc(N)c2ncnc1-2` [3-MA, 3-methyladenine], the “Inhibition of 4-induced cell death in Jurkat cells” value in assay [1] is listed as “negligibly inhibited”. Also, the “Inhibition … in HeLa-S3 cells” value in assay [2] is on record as “negligibly inhibited”. Besides, the “Inhibition … in A549 cells” value in assay [3] is reported as “negligibly inhibited”.

Regarding `CN1C(=O)C(Cc2c[nH]c3ccccc23)NC1=S` (centres unmarked) [necrostatin-1], the “Inhibition of 4-induced cell death in Jurkat cells” value in assay [1] is listed as “negligibly inhibited”. For the same compound, the “Inhibition … in HeLa-S3 cells” value in assay [2] was “negligibly inhibited”. For the same compound, the “Inhibition … in A549 cells” value in [3] was “negligibly inhibited”.

For `N=C(N)NCCC[C@H](NC(=O)[C@H](CC1CCCCC1)NC(=O)[C@H](CCCNC(=N)N)NC(=O)[C@H](CC1CCCCC1)NC(=O)[C@@H](N)CCCNC(=N)N)C(=O)NCC(=O)NCCCCCCCCNC(=O)COc1cccc2c1C1c3c(OCC(=O)NCCCCCCCCNC(=O)CNC(=O)[C@H](CCCNC(=N)N)NC(=O)[C@H](CC4CCCCC4)NC(=O)[C@H](CCCNC(=N)N)NC(=O)[C@H](CC4CCCCC4)NC(=O)[C@@H](N)CCCNC(=N)N)cccc3C2c2cccc(OCC(=O)NCCCCCCCCNC(=O)CNC(=O)[C@H](CCCNC(=N)N)NC(=O)[C@H](CC3CCCCC3)NC(=O)[C@H](CCCNC(=N)N)NC(=O)[C@H](CC3CCCCC3)NC(=O)[C@@H](N)CCCNC(=N)N)c21` [compound 7] (I: H-R[Cha]R[Cha]RG / II: H-R[Cha]R[Cha]RG / III: H-R[Cha]R[Cha]RG; linker I:C-II:C-III:C via X1), the EC50 in assay [7] (1 h) is 1.5 ± 0.1 µM; in assay [4] (1 h), 2.7 ± 0.5 µM; in assay [5] (1 h), above 12.5 µM; in assay [6] (1 h), 2.1 ± 0.1 µM.
